Data as given in US20100286149A1, “NOVEL BENZAMIDE DERIVATIVES USEFUL AS POTASSIUM CHANNEL MODULATORS” (priority 2007, published 2010).

Assays:
[1] = target: T1, BK channels heterologously expressed in Xenopus laevis oocytes (Homo sapiens, UniProt Q12791); test: BK channel opening activity, two-electrode voltage clamp in Xenopus laevis oocytes; type: cell-based
T1 construct: expressed in transfected cells; host or cells: Xenopus laevis oocytes
Experimental: In this example the BK channel opening activity of Compound 12 (i.e. N-[5-Chloro-2-(1H-tetrazol-5-yl)-phenyl]-4-dipropylsulfamoyl-benzamide) is determined using BK channels heterologously expressed in Xenopus laevis oocytes.
The electrical current through the BK channel was measured using conventional two-electrode voltage clamp. BK currents were activated by repeating ramp protocols. In brief, the membrane potential was continuously changed from −120 mV to +120 mV within a 2 s period. The threshold for BK activation is approximately +30 mV under control conditions. Compounds were applied for 100 s during which the ramp protocol was repeated 10 times with 10 s intervals. In between the ramp protocols the membrane potential was clamped at −80 mV. The first three compound applications were control blanks where the current level is allowed to stabilize.
In order to evaluate the ability of the compounds to shift the BK activation curve towards lower membrane potentials, the BK current was transformed into conductance by using Ohm's law g=I/(Ememb−Erev), where g is the conductance, I is the current, Ememb is the membrane potential and Erev is the reversal potential. The extracellular solution for these experiments contained 2.5 mM K+ and the intracellular K+ concentration of an oocyte was estimated to be 100 mM. Under those conditions, Nernst equation predicts a reversal potential of Erev=−93.2 mV. The control conductance level at a membrane potential of +100 mV was calculated, and the compound effect was evaluated as the potential difference, ΔV, to the membrane potential at which the same conductance level was obtained in the presence of compound.
The concentration response curve for this potential difference was fitted to the sigmoidal logistic equation: ΔV=ΔVmax/(1+(EC50/[compound])^n), where ΔVmax represents the maximal left shift of the BK activation curve, EC50 is the concentration causing a half maximal response, and n is the slope coefficient.

T1 sequence (Q12791 whole entry): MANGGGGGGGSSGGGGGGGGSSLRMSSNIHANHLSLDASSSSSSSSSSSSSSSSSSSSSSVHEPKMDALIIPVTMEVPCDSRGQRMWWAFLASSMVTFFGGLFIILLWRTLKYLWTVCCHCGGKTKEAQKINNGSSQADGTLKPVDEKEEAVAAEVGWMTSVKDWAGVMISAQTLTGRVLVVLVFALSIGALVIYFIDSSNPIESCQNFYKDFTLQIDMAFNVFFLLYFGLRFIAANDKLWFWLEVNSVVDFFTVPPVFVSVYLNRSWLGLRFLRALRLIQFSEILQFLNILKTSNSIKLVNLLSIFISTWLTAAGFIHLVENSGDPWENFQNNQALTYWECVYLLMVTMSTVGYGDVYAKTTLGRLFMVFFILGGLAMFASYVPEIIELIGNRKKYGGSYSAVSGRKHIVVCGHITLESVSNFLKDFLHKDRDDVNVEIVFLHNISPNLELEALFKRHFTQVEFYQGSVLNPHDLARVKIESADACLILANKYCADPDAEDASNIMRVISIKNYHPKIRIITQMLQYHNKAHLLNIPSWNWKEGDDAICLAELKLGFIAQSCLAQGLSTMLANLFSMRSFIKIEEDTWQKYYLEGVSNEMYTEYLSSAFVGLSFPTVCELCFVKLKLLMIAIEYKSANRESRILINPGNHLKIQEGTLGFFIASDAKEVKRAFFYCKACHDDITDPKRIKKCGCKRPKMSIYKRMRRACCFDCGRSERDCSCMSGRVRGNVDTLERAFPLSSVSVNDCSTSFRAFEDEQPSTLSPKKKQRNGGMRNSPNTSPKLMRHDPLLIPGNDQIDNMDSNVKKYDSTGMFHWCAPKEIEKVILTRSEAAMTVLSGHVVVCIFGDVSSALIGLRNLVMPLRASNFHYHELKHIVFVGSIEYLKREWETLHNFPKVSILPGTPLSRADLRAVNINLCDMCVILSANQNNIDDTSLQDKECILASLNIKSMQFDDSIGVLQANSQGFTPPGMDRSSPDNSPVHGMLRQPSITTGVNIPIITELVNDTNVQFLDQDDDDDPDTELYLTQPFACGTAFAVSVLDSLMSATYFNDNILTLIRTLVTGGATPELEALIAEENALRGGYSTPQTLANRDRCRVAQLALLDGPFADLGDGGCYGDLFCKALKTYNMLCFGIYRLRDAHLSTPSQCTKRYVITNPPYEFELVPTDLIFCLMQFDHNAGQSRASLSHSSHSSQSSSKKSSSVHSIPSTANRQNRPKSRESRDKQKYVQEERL

Row | melting point [°C] | ΔVmax, maximal left shift of the BK activation curve ([1]; BKCa channels expressed in Xenopus oocytes, 0.01-31.6 μM, sigmoidal logistic fit) [mV] | EC50 ([1]; BKCa channels expressed in Xenopus oocytes, ramp −120 to +120 mV, 0.01-31.6 μM, ΔV at control conductance level of +100 mV, sigmoidal logistic fit, read-out: EC50 for the left-shift of the BK activation curve (ΔV)) [nM] | Structure (SMILES) | BK current level at depolarizing potentials ([1]; increasing concentrations (0.01-31.6 μM) applied, 100 s each, ramp protocol)
1 | 247 to 249 | – | – | O=C(Nc1cc(Cl)ccc1-c1nnn[nH]1)c1cc(C(F)(F)F)cc(C(F)(F)F)c1 [Compound 4, N-[5-Chloro-2-(1H-tetrazol-5-yl)-phenyl]-3,5-bis-trifluoromethyl-benzamide] | –
2 | – | −110 | 1300 | CCCN(CCC)S(=O)(=O)c1ccc(C(=O)Nc2cc(Cl)ccc2-c2nnn[nH]2)cc1 [Compound 12, N-[5-Chloro-2-(1H-tetrazol-5-yl)-phenyl]-4-dipropylsulfamoyl-benzamide] | marked increase in the current level at depolarizing potentials
3 | 221 to 225 | – | – | O=C(Nc1cc(Cl)ccc1-c1nnn[nH]1)c1ccc2ccccc2c1O [Compound 8, 1-Hydroxy-naphthalene-2-carboxylic acid [5-chloro-2-(1H-tetrazol-5-yl)-phenyl]-amide] | –
